Source: PubChem BioAssay (NCI)
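GI50 marks 50% less growth. TGI: total growth inhibition.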

Columns and labels:
Test in all cases: inhibition of tumour cell growth, NCI panel, 384-well format; in the data active = GI50 below about 0.43 µM; inactive = the rest
HT29 colon = tested on: HT29 colon
MALME-3M melanoma = tested on: MALME-3M melanoma
KM12 colon = tested on: KM12 colon
MCF7 breast = tested on: MCF7 breast
A549 NSCLC = tested on: A549 NSCLC
SNB-75 CNS = tested on: SNB-75 CNS
SW-620 colon = tested on: SW-620 colon
NCI-H522 lung = tested on: NCI-H522 lung
HCT-116 colon = tested on: HCT-116 colon
UACC-62 melanoma = tested on: UACC-62 melanoma
786-0 renal = tested on: 786-0 renal
NCI-H23 lung = tested on: NCI-H23 lung
CCRF-CEM leukemia = tested on: CCRF-CEM leukemia
SF-268 CNS = tested on: SF-268 CNS
MDA-MB-468 breast = tested on: MDA-MB-468 breast
SF-295 CNS = tested on: SF-295 CNS
T-47D breast = tested on: T-47D breast
K-562 leukemia = tested on: K-562 leukemia
CAKI-1 renal = tested on: CAKI-1 renal
LOX IMVI melanoma = tested on: LOX IMVI melanoma
OVCAR-5 ovarian = tested on: OVCAR-5 ovarian
RPMI-8226 leukemia = tested on: RPMI-8226 leukemia
SNB-19 CNS = tested on: SNB-19 CNS
RXF 393 renal = tested on: RXF 393 renal
NCI/ADR-RES ovarian = tested on: NCI/ADR-RES ovarian
OVCAR-3 ovarian = tested on: OVCAR-3 ovarian
OVCAR-8 ovarian = tested on: OVCAR-8 ovarian
ACHN renal = tested on: ACHN renal
U251 glioblastoma = tested on: U251 glioblastoma
SK-MEL-28 melanoma = tested on: SK-MEL-28 melanoma
PC-3 prostate = tested on: PC-3 prostate
SK-MEL-2 melanoma = tested on: SK-MEL-2 melanoma
HOP-62 NSCLC = tested on: HOP-62 NSCLC
MDA-MB-231 breast = tested on: MDA-MB-231 breast
SN12C renal = tested on: SN12C renal
SF-539 CNS = tested on: SF-539 CNS
MOLT-4 leukemia = tested on: MOLT-4 leukemia
HL-60(TB) leukemia = tested on: HL-60(TB) leukemia
HCT-15 colon = tested on: HCT-15 colon
UO-31 renal = tested on: UO-31 renal
BT-549 breast = tested on: BT-549 breast
A498 renal = tested on: A498 renal
MDA-MB-435 melanoma = tested on: MDA-MB-435 melanoma
HOP-92 NSCLC = tested on: HOP-92 NSCLC
IGROV1 ovarian = tested on: IGROV1 ovarian
SK-OV-3 ovarian = tested on: SK-OV-3 ovarian
M14 melanoma = tested on: M14 melanoma
TK-10 renal = tested on: TK-10 renal
DU-145 prostate = tested on: DU-145 prostate
NCI-H226 lung = tested on: NCI-H226 lung
OVCAR-4 ovarian = tested on: OVCAR-4 ovarian
EKVX NSCLC = tested on: EKVX NSCLC
COLO 205 colon = tested on: COLO 205 colon
SR leukemia = tested on: SR leukemia
NCI-H460 NSCLC = tested on: NCI-H460 NSCLC
UACC-257 melanoma = tested on: UACC-257 melanoma
NCI-H322M lung = tested on: NCI-H322M lung
HCC-2998 colon = tested on: HCC-2998 colon
SK-MEL-5 melanoma = tested on: SK-MEL-5 melanoma

O=c1[nH]cc(N(CCCl)CCCl)c(=O)[nH]1
29.8 µM: TGI (SF-539 CNS)
46.8 µM: TGI (BT-549 breast)
1.87 µM: TGI (MOLT-4 leukemia)
inactive: GI50 (HT29 colon) 24.5 µM | GI50 (MALME-3M melanoma) 19.2 µM | GI50 (KM12 colon) 98.9 µM | GI50 (MCF7 breast) 18 µM | GI50 (A549 NSCLC) 26.8 µM | GI50 (SNB-75 CNS) 29.1 µM | GI50 (SW-620 colon) 8.78 µM | GI50 (NCI-H522 lung) 12.7 µM | GI50 (HCT-116 colon) 7.54 µM | GI50 (UACC-62 melanoma) 6.43 µM | GI50 ([…]-0 renal) 16.8 µM | GI50 (NCI-H23 lung) 12.3 µM | GI50 (CCRF-CEM leukemia) 2.21 µM | GI50 (SF-268 CNS) 5.68 µM | GI50 (MDA-MB-468 breast) 2.73 µM | GI50 (SF-295 CNS) 8.54 µM | GI50 (T-47D breast) 30 µM | GI50 (K-562 leukemia) 17.4 µM | GI50 (CAKI-1 renal) 4.39 µM | GI50 (LOX IMVI melanoma) 19.4 µM | GI50 (OVCAR-5 ovarian) 20.1 µM | GI50 (RPMI-8226 leukemia) 6.85 µM | GI50 (SNB-19 CNS) 24.6 µM | GI50 (RXF 393 renal) 13.2 µM | GI50 (NCI/ADR-RES ovarian) 15.8 µM | GI50 (OVCAR-3 ovarian) 23.5 µM | GI50 (OVCAR-8 ovarian) 9.13 µM | GI50 (ACHN renal) 2.88 µM | GI50 (U251 glioblastoma) 10.2 µM | GI50 (SK-MEL-28 melanoma) 65.8 µM | GI50 (PC-3 prostate) 73.1 µM | GI50 (SK-MEL-2 melanoma) 68 µM | GI50 (HOP-62 NSCLC) 7.79 µM | GI50 (MDA-MB-231 breast) 35.1 µM | GI50 (SN12C renal) 4.66 µM | GI50 (SF-539 CNS) 7.24 µM | GI50 (MOLT-4 leukemia) 0.594 µM | GI50 (HL-60(TB) leukemia) 1.23 µM | GI50 (HCT-15 colon) 7.48 µM | GI50 (UO-31 renal) 20.3 µM | GI50 (BT-549 breast) 11.2 µM | GI50 (A498 renal) 68.9 µM | GI50 (MDA-MB-435 melanoma) 86.4 µM | GI50 (HOP-92 NSCLC) 19.3 µM | GI50 (IGROV1 ovarian) 91.9 µM | GI50 (SK-OV-3 ovarian) 28.9 µM | GI50 (M14 melanoma) 9.7 µM | GI50 (TK-10 renal) 50 µM | GI50 (DU-145 prostate) 14.1 µM | GI50 (NCI-H226 lung) 51.4 µM
41.1 µM: TGI (SF-268 CNS)
53.6 µM: TGI (SN12C renal)
67.4 µM: TGI (OVCAR-5 ovarian)
31.3 µM: TGI (HOP-62 NSCLC)
42.1 µM: TGI (DU-145 prostate)
14.2 µM: TGI (MDA-MB-468 breast)
27.4 µM: TGI (RXF 393 renal)
4.17 µM: TGI (CCRF-CEM leukemia)
26.4 µM: TGI (SF-295 CNS)
76.3 µM: TGI (CAKI-1 renal)
61.6 µM: TGI (M14 melanoma)
25.6 µM: TGI (NCI-H522 lung)
57.9 µM: TGI (NCI-H23 lung)
2.57 µM: TGI (HL-60(TB) leukemia)
20.3 µM: TGI (RPMI-8226 leukemia)
8.7 µM: TGI (ACHN renal)

O=C(NCC(=O)N1CC[C@H](NC2CCC(O)(c3ccc(-c4ncccn4)cn3)CC2)C1)c1cccc(C(F)(F)F)c1 (some centres not stated)
63.3 µM: TGI (RXF 393 renal)
> 82.3 µM: TGI (HCC-2998 colon)
inactive: GI50 (HT29 colon) > 57.4 µM | GI50 (MALME-3M melanoma) > 56.4 µM | GI50 (KM12 colon) > 100 µM | GI50 (MCF7 breast) > 54.6 µM | GI50 (A549 NSCLC) > 100 µM | GI50 (SNB-75 CNS) > 100 µM | GI50 (SW-620 colon) > 100 µM | GI50 (NCI-H522 lung) 65.6 µM | GI50 (HCT-116 colon) 32.1 µM | GI50 (OVCAR-4 ovarian) > 60.6 µM | GI50 (UACC-62 melanoma) > 47.5 µM | GI50 ([…]-0 renal) 69.3 µM | GI50 (NCI-H23 lung) 33.5 µM | GI50 (CCRF-CEM leukemia) 29.6 µM | GI50 (SF-268 CNS) > 81.4 µM | GI50 (MDA-MB-468 breast) 17.1 µM | GI50 (SF-295 CNS) > 96.1 µM | GI50 (T-47D breast) 12.1 µM | GI50 (K-562 leukemia) 15.4 µM | GI50 (EKVX NSCLC) 55.9 µM | GI50 (COLO 205 colon) > 87 µM | GI50 (CAKI-1 renal) 48.1 µM | GI50 (SR leukemia) 17.4 µM | GI50 (NCI-H460 NSCLC) 38.4 µM | GI50 (LOX IMVI melanoma) 53.6 µM | GI50 (OVCAR-5 ovarian) > 100 µM | GI50 (RPMI-8226 leukemia) 20.8 µM | GI50 (SNB-19 CNS) 97.5 µM | GI50 (RXF 393 renal) 23.6 µM | GI50 (NCI/ADR-RES ovarian) > 100 µM | GI50 (OVCAR-3 ovarian) > 81.8 µM | GI50 (OVCAR-8 ovarian) 96.8 µM | GI50 (ACHN renal) > 100 µM | GI50 (U251 glioblastoma) 52.5 µM | GI50 (SK-MEL-28 melanoma) > 60 µM | GI50 (PC-3 prostate) 61.7 µM | GI50 (SK-MEL-2 melanoma) > 64.4 µM | GI50 (HOP-62 NSCLC) > 64.7 µM | GI50 (UACC-257 melanoma) 19.2 µM | GI50 (MDA-MB-231 breast) 77.6 µM | GI50 (NCI-H322M lung) > 92.4 µM | GI50 (SN12C renal) > 100 µM | GI50 (SF-539 CNS) > 67.3 µM | GI50 (MOLT-4 leukemia) 20.9 µM | GI50 (HL-60(TB) leukemia) 30.9 µM | GI50 (HCT-15 colon) > 66.7 µM | GI50 (HCC-2998 colon) 35.7 µM | GI50 (UO-31 renal) 81.2 µM | GI50 (BT-549 breast) 30 µM | GI50 (A498 renal) 55.1 µM | GI50 (MDA-MB-435 melanoma) > 100 µM | GI50 (HOP-92 NSCLC) > 58.5 µM | GI50 (IGROV1 ovarian) > 96 µM | GI50 (SK-OV-3 ovarian) > 85.7 µM | GI50 (M14 melanoma) > 49.1 µM | GI50 (TK-10 renal) > 90 µM | GI50 (SK-MEL-5 melanoma) 29.7 µM | GI50 (DU-145 prostate) > 100 µM | GI50 (NCI-H226 lung) > 58 µM
> 100 µM: TGI (HT29 colon) | TGI (KM12 colon) | TGI (MCF7 breast) | TGI (A549 NSCLC) | TGI (SNB-75 CNS) | TGI (SW-620 colon) | TGI (NCI-H522 lung) | TGI (HCT-116 colon) | TGI (OVCAR-4 ovarian) | TGI (786-0 renal) | TGI (CCRF-CEM leukemia) | TGI (SF-268 CNS) | TGI (SF-295 CNS) | TGI (EKVX NSCLC) | TGI (COLO 205 colon) | TGI (CAKI-1 renal) | TGI (NCI-H460 NSCLC) | TGI (LOX IMVI melanoma) | TGI (OVCAR-5 ovarian) | TGI (SNB-19 CNS) | TGI (NCI/ADR-RES ovarian) | TGI (OVCAR-3 ovarian) | TGI (OVCAR-8 ovarian) | TGI (ACHN renal) | TGI (U251 glioblastoma) | TGI (SK-MEL-28 melanoma) | TGI (PC-3 prostate) | TGI (SK-MEL-2 melanoma) | TGI (HOP-62 NSCLC) | TGI (MDA-MB-231 breast) | TGI (NCI-H322M lung) | TGI (SN12C renal) | TGI (SF-539 CNS) | TGI (HCT-15 colon) | TGI (UO-31 renal) | TGI (BT-549 breast) | TGI (A498 renal) | TGI (MDA-MB-435 melanoma) | TGI (HOP-92 NSCLC) | TGI (IGROV1 ovarian) | TGI (SK-OV-3 ovarian) | TGI (TK-10 renal) | TGI (DU-145 prostate) | TGI (NCI-H226 lung)
> 70.2 µM: TGI (HL-60(TB) leukemia)
> 73.5 µM: TGI (M14 melanoma)
> 52.1 µM: TGI (SK-MEL-5 melanoma)
59.3 µM: TGI (MDA-MB-468 breast)
> 70.8 µM: TGI (UACC-62 melanoma)
31.5 µM: TGI (K-562 leukemia) | TGI (SR leukemia)
> 88.2 µM: TGI (NCI-H23 lung)
41.1 µM: TGI (UACC-257 melanoma)
> 90.9 µM: TGI (MALME-3M melanoma)
> 69.4 µM: TGI (T-47D breast)
63 µM: TGI (MOLT-4 leukemia)
74.2 µM: TGI (RPMI-8226 leukemia)
